In patent US4372953A, “Tetrazole derivatives, and anti-ulcer composition containing the same” (Otsuka Pharmaceutical Company, Limited, priority 1980, dated 1983):
Read-outs that look alike come from different tables or passages of the source.

Assays:
[1] = test system: gastric juice secretion; experiment: Shay rat pylorus ligation method (gastric juice secretion-inhibiting activity); type: in vivo, male Wistar rats; conditions: 100 mg/kg, 4 hours after ligation; for inhibition in vivo at 100 mg/kg: Rattus norvegicus, 4 h
Method: The pharmacological activities of the compounds (1) were tested by a Shay rat pylorus ligation method (cf. H. Shay et al: Gastroenterol., Vol. 5, page 43, 1945) which is the most popular method for testing of gastric juice secretion-inhibiting activity. The test was carried out by using male Wistar rats, weighing about 170 g and fasting for 24 hours.
Test compounds were administered 30 minutes before the pylorus ligation in a dose of 100 mg/kg in subcutaneous route in case of test compounds 37, 38, 50, 51 and 52, in a dose of 200 mg/kg in subcutaneous route in case of test compounds 105 and 106 and in dose of 100 mg/kg in duodenal route in case of other test compounds, and the volume, total acidity and pepsin activity of the gastric juice were measured 4 hours after the ligation. As a control, a saline solution was administered instead of the test compound. The inhibitory ratio (%) of the test compounds were calculated when the inhibitory activities of the control were counted as zero (0).
(§1) In the table, the inhibitory ratio (%) was evaluated as follows: […]

[2] = test system: stress ulcer; experiment: Stress ulcer (restraint and water immersion); type: in vivo, male Wistar rats; conditions: Rattus norvegicus, po, 7 h, read-out: Inhibitory ratio of stress ulcer; for inhibition in vivo at 300 mg/kg: 0.5% CMC suspension; for inhibition in vivo: concentration of 1×10^-3 mole
Method: After male Wistar rats weighing about 170 g was fasted for 24 hours, the rats were restrained in a stress cage and dipped in water bath at 23° C. till chest of the animals. After 7 hours, the rats were killed and the stomach was isolated. Into the isolated stomach 10% formalin (8 ml) was poured and settled. The stomach was cut open at the greater curvature, and the length of each ulcer on the membrane was measured. Sum of the length of all ulcers was shown as ulcer index (UI). The test compound was orally administered to the rats before restraint in a stress cage in a dose of 300 mg/kg in the form of 0.5% CMC suspension in case of test compounds 3, 4, 6, 15 and 27 and in a concentration of 1×10^-3 mole in case of other test compounds. As a control, only the solvent (CMC solution) was administered likewise. The inhibitory ratio (%) of stress ulcer of the test compounds was calculated by the following equation: [formula]
as §1

[3] = duodenal route, read-out: Inhibitory ratio, volume of gastric juice
[4] = sc, subcutaneous route, read-out: Inhibitory ratio, pepsin activity
[5] = sc, subcutaneous route, read-out: Inhibitory ratio, total acidity
[6] = sc, subcutaneous route, read-out: Inhibitory ratio, volume of gastric juice

SMILES	inhibition in vivo at 100 mg/kg [1, 3] [%]	inhibition in vivo [2] [%]	other results
Cn1nnnc1SCCCSc1ccccc1 [Test compound 10, 1-Methyl-5-(3-phenylthiopropyl)thio-1,2,3,4-tetrazole]	10 to 50		
Cn1ccnc1SCCCSc1nnnn1C [Test compound 11, 1-Methyl-5-[3-(1-methylimidazol-2-yl)thiopropyl]thio-1,2,3,4-tetrazole]	> 50		
Cc1ccnc(SCCCSc2nnnn2C)n1 [Test compound 13, 1-Methyl-5-[3-(4-methyl-2-pyrimidyl)thiopropyl]thio-1,2,3,4-tetrazole]	> 50		
Cc1nnc(SCCCSc2nnnn2C)n1C [Test compound 15, 1-Methyl-5-[3-(4,5-dimethyl-1,2,4-triazol-3-yl)thiopropyl]thio-1,2,3,4-tetrazole]			inhibition in vivo at 300 mg/kg [2]: > 60%
Cn1nnnc1SCCCSCc1csc(N)n1 [Test compound 17, 1-Methyl-5-[3-(2-amino-4-thiazolyl)methylthiopropyl]thio-1,2,3,4-tetrazole]	10 to 50	> 60	
Cn1nnnc1SCCCSc1ccc2ccccc2n1 [Test compound 18, 1-Methyl-5-[3-(2-quinolyl)thiopropyl]thio-1,2,3,4-tetrazole]	10 to 50		
Cn1nnnc1SCCCSc1nc2ccccc2[nH]1 [Test compound 19, 1-Methyl-5-[3-(2-benzimidazolyl)thiopropyl]thio-1,2,3,4-tetrazole]	10 to 50		
Cn1nnnc1SCCCSCc1ccco1 [Test compound 21, 1-Methyl-5-[3-(2-furyl)methylthiopropyl]thio-1,2,3,4-tetrazole]	> 50		
Cn1nnnc1SCCCSCc1ccccc1 [Test compound 22, 1-Methyl-5-(3-benzylthiopropyl)thio-1,2,3,4-tetrazole]	> 50		
Cn1nnnc1SCCCSCc1ccccn1 [Test compound 23, 1-Methyl-5-[3-(2-pyridyl)methylthiopropyl]thio-1,2,3,4-tetrazole]	10 to 50		
Cn1nnnc1SCCCSc1ccncc1 [Test compound 25, 1-Methyl-5-[3-(4-pyridyl)thiopropyl]thio-1,2,3,4-tetrazole]		> 60	
Br.CNC(=N)SCCCCSc1nnnn1C [Test compound 27, 1-Methyl-2-[4-(1-methyl-1,2,3,4-tetrazol-5-yl)thiobutyl]isothiourea hydrobromide]			inhibition in vivo at 300 mg/kg [2]: > 60%; Inhibitory ratio, volume of gastric juice ([1]; duodenal route): + +
Cn1nnnc1SCCCCSc1ccccc1 [Test compound 28, 1-Methyl-5-(4-phenylthiobutyl)thio-1,2,3,4-tetrazole]	10 to 50		
Cn1nnnc1SCCCCSc1nc2ccccc2c(=O)[nH]1 [Test compound 29, 1-Methyl-5-[4-(4-oxo-3,4-dihydroquinazolin-2-yl)thiobutyl]thio-1,2,3,4-tetrazole]	10 to 50		
Cn1nnnc1SCCSc1ccccn1 [Test compound 31, 1-Methyl-5-[2-(2-pyridyl)thioethyl]thio-1,2,3,4-tetrazole]	> 50	> 60	
Cn1nnnc1SCCCCCSc1ccccn1 [Test compound 32, 1-Methyl-5-[5-(2-pyridyl)thiopentyl]thio-1,2,3,4-tetrazole]	10 to 50		
Cn1nnnc1SCCCCCCSc1ccccn1 [Test compound 33, 1-Methyl-5-[6-(2-pyridyl)thiohexyl]thio-1,2,3,4-tetrazole]	10 to 50	> 60	
CC(CSc1ccccn1)CSc1nnnn1C (stereo not drawn) [Test compound 34, 1-Methyl-5-[2-methyl-3-(2-pyridyl)thiopropyl]thio-1,2,3,4-tetrazole]	> 50	> 60	
Cn1nnnc1SCCSc1nnnn1C [Test compound 35, 1-Methyl-5-[2-(1-methyl-1,2,3,4-tetrazol-5-yl)thioethyl]thio-1,2,3,4-tetrazole]			Inhibitory ratio, volume of gastric juice ([1]; duodenal route): + +

SMILES	inhibition in vivo at 100 mg/kg [1, 3] [%]	inhibition in vivo [2] [%]	other results
Cn1nnnc1SCCCSc1nnnn1C [Test compound 37, 1-Methyl-5-[3-(1-methyl-1,2,3,4-tetrazol-5-yl)thiopropyl]thio-1,2,3,4-tetrazole]			inhibition in vivo at 100 mg/kg [1, 4]: > 50%; inhibition in vivo at 100 mg/kg [1, 5]: > 50%; inhibition in vivo at 100 mg/kg [1, 6]: > 50%
c1ccc(-n2nnnc2SCCCSc2nnnn2-c2ccccc2)cc1 [Test compound 38, 1-Phenyl-5-[3-(1-phenyl-1,2,3,4-tetrazol-5-yl)thiopropyl]thio-1,2,3,4-tetrazole]			inhibition in vivo at 100 mg/kg [1, 4]: 10 to 50%; inhibition in vivo at 100 mg/kg [1, 5]: 10 to 50%; inhibition in vivo at 100 mg/kg [1, 6]: 10 to 50%
Cn1nnnc1SCCCSc1ccc([N+](=O)[O-])cn1 [Test compound 40, 1-Methyl-5-[3-(5-nitro-2-pyridyl)thiopropyl]thio-1,2,3,4-tetrazole]		> 60	
Cc1nnc(SC(C)CCSc2nnnn2C)o1 (stereo not drawn) [Test compound 42, 1-Methyl-5-[3-methyl-3-(5-methyl-1,3,4-oxadiazol-2-yl)thiopropyl]thio-1,2,3,4-tetrazole]		> 60	
Cn1nnnc1[S+]([O-])CCCCSc1ccccn1 (stereo not drawn) [Test compound 45, 1-Methyl-1,2,3,4-tetrazol-5-yl 4-(2-pyridyl)thiobutyl sulfoxide]		> 60	
Cn1nnnc1SCCCCS(=O)(=O)c1nnnn1C [Test compound 47, 4-(1-Methyl-1,2,3,4-tetrazol-5-yl)thiobutyl 1-methyl-1,2,3,4-tetrazol-5-yl sulfone]	> 50		
Cn1nnnc1SCCCS(=O)(=O)c1ccccn1 [Test compound 48, 3-(1-Methyl-1,2,3,4-tetrazol-5-yl)thiopropyl 2-pyridyl sulfone]	10 to 50		
CC(CC[S+]([O-])c1nnnn1C)Sc1nnnn1C (stereo not drawn) [Test compound 49, 1-Methyl-1,2,3,4-tetrazol-5-yl 3-methyl-3-(1-methyl-1,2,3,4-tetrazol-5-yl)thiopropyl sulfoxide]		> 60	
CCC(=O)CCCSc1nnnn1C [Test compound 50, 1-Methyl-5-(3-propionylpropyl)thio-1,2,3,4-tetrazole]			inhibition in vivo at 100 mg/kg [1, 4]: > 50%; inhibition in vivo at 100 mg/kg [1, 5]: > 50%; inhibition in vivo at 100 mg/kg [1, 6]: > 50%
COc1ccc(C(=O)CCCSc2nnnn2C)cc1 [Test compound 63, 1-Methyl-5-[3-(4-methoxybenzoyl)propyl]thio-1,2,3,4-tetrazole]	10 to 50		
Cn1nnnc1SCCCCC(=O)c1ccccc1 [Test compound 71, 1-Methyl-5-(4-benzoylbutyl)thio-1,2,3,4-tetrazole]	10 to 50		
CCCCOc1ccc(C(=O)CCCSc2nnnn2C)cc1 [Test compound 79, 1-Methyl-5-[3-(4-butoxybenzoyl)propyl]thio-1,2,3,4-tetrazole]		> 60	
Cn1nnnc1SCCCNC(=O)C1CCCCC1 [Test compound 81, 1-Methyl-5-(3-cyclohexylcarbonylaminopropyl)thio-1,2,3,4-tetrazole]	10 to 50		inhibition in vivo at 100 mg/kg ([1]; duodenal route, read-out: Inhibitory ratio, pepsin activity): 10 to 50%; inhibition in vivo at 100 mg/kg ([1]; duodenal route, read-out: Inhibitory ratio, total acidity): 10 to 50%
CC(=O)N(C)CCCSc1nnnn1C [Test compound 83, 1-Methyl-5-[3-(N-methyl-N-acetylamino)propyl]thio-1,2,3,4-tetrazole]		> 60	
CCN(CCCSc1nnnn1C)C(=O)C1CCCC1 [Test compound 92, 1-Methyl-5-[3-(N-ethyl-N-cyclopentylcarbonylamino)propyl]thio-1,2,3,4-tetrazole]	10 to 50		
Cn1nnnc1SCc1ccccn1 [Test compound 98, 1-Methyl-5-(2-pyridylmethyl)thio-1,2,3,4-tetrazole]	> 50		
Cc1nnnn1CCCC(=O)N1CCN(C)CC1 [Test compound 112, 5-Methyl-1-[3-(4-methyl-1-piperazinylcarbonyl)propyl]-1,2,3,4-tetrazole]		> 60	
COc1ccc(CCNC(=O)CCCn2nnnc2C)cc1OC [Test compound 114, N-[2-(3,4-Dimethoxyphenyl)ethyl]-4-(5-methyl-1,2,3,4-tetrazol-1-yl)butyramide]		30 to 60	
Cc1nnnn1CCCC(=O)N1CCOCC1 [Test compound 117, 5-Methyl-1-(3-morpholinocarbonylpropyl)-1,2,3,4-tetrazole]		30 to 60	
